Data published in article PMC9958325 (Nature Communications, 2023).
Values joined by “and” are separate entries in the source; they are usually repeats but may differ in a detail not shown here. Identical values can stand only once. Like-named read-outs stand apart in the source and are kept apart here.

Columns and labels:
[1] = system: SARS-CoV-2 TKYTS14631/ο BA.5; assay: microbe, parasite or virus in culture; format: cell-based
SARS-CoV-2^WK-521 = assay: microbe, parasite or virus in culture; format: cell-based; design: EC95, individual assays / EC95, Average: unit: µM
[2] = system: SARS-CoV-2 UT-NCD1757-1N/ο BA.2.75; assay: microbe, parasite or virus in culture; format: cell-based
HeLa-ACE2-TMPRSS2 cells = assay: Intracellular concentrations of compounds (LC/MS), HeLa-ACE2-TMPRSS2 cells; conditions: 6 h; for Intracellular amount relative to nirmatrelvir: HeLa-ACE2-TMPRSS2 cells; for Intracellular amount, individual: listed as TKB-0248
[3] = system: SARS-CoV-2^WK521 in HeLa-ACE2-TMPRSS2 cells; assay: Antiviral assay, HeLa-ACE2-TMPRSS2 cells, WK521; format: cell-based
[4] = system: SARS-CoV-2^WK521 in A549-ACE2-TMPRSS2 cells; assay: Antiviral assay, A549-ACE2-TMPRSS2 cells, WK521; format: cell-based
[5] = system: SARS-CoV-2 TKYX00012/ο BA.1; assay: microbe, parasite or virus in culture; format: cell-based
[6] = Pharmacokinetic study in PXB-mice (human liver-chimeric)
[7] = system: SARS-CoV-2 TKYS02037/ο BA.2; assay: microbe, parasite or virus in culture; format: cell-based
human calpain = target: T1, human calpain (Homo sapiens, UniProt P07384); assay: Human calpain activity assay; format: biochemical; conditions: for %inhibition against humanCalpain: triplicate
T1 sequence (P07384 2-714): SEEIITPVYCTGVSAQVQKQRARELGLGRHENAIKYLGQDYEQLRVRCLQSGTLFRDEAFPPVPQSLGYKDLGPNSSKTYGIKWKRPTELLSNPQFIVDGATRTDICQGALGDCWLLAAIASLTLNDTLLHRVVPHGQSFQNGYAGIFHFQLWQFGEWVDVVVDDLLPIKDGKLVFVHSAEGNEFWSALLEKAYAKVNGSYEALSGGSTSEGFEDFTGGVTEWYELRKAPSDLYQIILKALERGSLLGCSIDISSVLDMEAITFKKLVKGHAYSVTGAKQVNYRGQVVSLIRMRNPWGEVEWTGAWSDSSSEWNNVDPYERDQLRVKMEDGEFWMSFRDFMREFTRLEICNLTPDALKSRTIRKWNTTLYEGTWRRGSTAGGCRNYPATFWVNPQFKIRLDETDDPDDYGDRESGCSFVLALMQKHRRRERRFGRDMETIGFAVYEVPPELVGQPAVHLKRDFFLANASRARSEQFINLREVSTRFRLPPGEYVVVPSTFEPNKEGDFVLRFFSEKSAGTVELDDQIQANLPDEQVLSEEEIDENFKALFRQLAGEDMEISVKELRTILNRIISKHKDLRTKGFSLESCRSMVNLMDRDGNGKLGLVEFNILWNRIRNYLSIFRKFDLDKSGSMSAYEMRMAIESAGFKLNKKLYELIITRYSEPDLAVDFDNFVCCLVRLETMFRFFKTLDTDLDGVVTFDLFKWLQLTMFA
T1 sequence (P04632 1-268 partner): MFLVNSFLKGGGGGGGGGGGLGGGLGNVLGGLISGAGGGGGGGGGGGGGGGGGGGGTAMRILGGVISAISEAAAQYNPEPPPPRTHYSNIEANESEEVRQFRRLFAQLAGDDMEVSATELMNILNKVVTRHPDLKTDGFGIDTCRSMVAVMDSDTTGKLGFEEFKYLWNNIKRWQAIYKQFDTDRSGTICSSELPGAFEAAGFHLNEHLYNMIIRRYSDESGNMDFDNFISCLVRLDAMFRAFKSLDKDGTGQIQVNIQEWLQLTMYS

CC(C)(C)[C@H](NC(=O)C(F)(F)F)C(=O)N1C[C@H]2[C@@H]([C@H]1C(=S)N[C@@H](C[C@@H]1CCNC1=O)C(=O)c1nc3c(F)cccc3s1)C2(C)C [TKB248]
EC50 ([1]; read-out: EC50 against TKYTS14631/ο BA.5): 70 ± 8 nM
EC50 ([1]; read-out: EC50 ο BA5, Average): 70.7 nM
EC50 ([1]; read-out: EC50 ο BA5, individual assays): 67.1 nM and 80 nM and 65 nM
EC95, Average (SARS-CoV-2^WK-521): 0.8712
EC95, individual assays (SARS-CoV-2^WK-521): 0.89 and 0.81 and 0.885 and 0.9
SARS-CoV2 RNA VeroE6 cell-based assay EC95 (SARS-CoV-2^WK-521): 0.87 ± 0.04 µM
EC50 (SARS-CoV-2^WK-521; read-out: EC50, Average): 225 nM
EC50 (SARS-CoV-2^WK-521; read-out: EC50, VeroE6 + 2 µM CP100356): 30 ± 30 nM
EC50 (SARS-CoV-2^WK-521; read-out: EC50, VeroE6 with CP100356, Average): 35 nM
EC50 (SARS-CoV-2^WK-521; read-out: EC50, VeroE6 with CP100356, individual assays): 23 nM and 65 nM and 17 nM
EC50 (SARS-CoV-2^WK-521; read-out: EC50, individual assays): 310 nM and 230 nM and 240 nM and 120 nM
EC50 (SARS-CoV-2^WK-521; read-out: SARS-CoV2 RNA VeroE6 cell-based assay EC50): 220 ± 80 nM
EC50 ([2]; read-out: EC50 against UT-NCD1757-1N/ο BA.2.75): 430 ± 91 nM
EC50 ([2]; read-out: EC50 ο BA2.75, individual assays): 430 nM and 320 nM and 250 nM
Intracellular amount relative to nirmatrelvir (HeLa-ACE2-TMPRSS2 cells; 50 µM): 318 fold
Intracellular amount relative to nirmatrelvir (HeLa-ACE2-TMPRSS2 cells; 100 µM): 165 fold
Intracellular amount, avg (HeLa-ACE2-TMPRSS2 cells; Hela ACE2 TMPRSS2, 10uM): 295.717 pmol(total)
Intracellular amount, individual (HeLa-ACE2-TMPRSS2 cells; Hela ACE2 TMPRSS2, 10uM): 295.283 pmol(total) and 296.151 pmol(total)
Intracellular amount, avg (HeLa-ACE2-TMPRSS2 cells; Hela ACE2 TMPRSS2, 50uM): 570.720 pmol(total)
Intracellular amount, individual (HeLa-ACE2-TMPRSS2 cells; Hela ACE2 TMPRSS2, 50uM): 643.805 pmol(total) and 497.635 pmol(total)
Intracellular amount, avg (HeLa-ACE2-TMPRSS2 cells; Hela ACE2 TMPRSS2, 100uM): 630.843 pmol(total)
Intracellular amount, individual (HeLa-ACE2-TMPRSS2 cells; Hela ACE2 TMPRSS2, 100uM): 605.189 pmol(total) and 656.496 pmol(total)
EC50 ([3]; SARS-CoV-2^WK521, read-out: EC50, HeLa-ACE2-TMPRSS2): 160 ± 75 nM
EC50 ([3]; source data, listed as TKB0248, read-out: EC50, HeLa-AEC2-TMPRSS2, individual assays): 230 nM and 80 nM and 170 nM
EC50 ([4]; SARS-CoV-2^WK521, read-out: EC50, A549-ACE2-TMPRSS2): 199 ± 5 nM
EC50 ([4]; source data, listed as TKB0248, read-out: EC50, A549-AEC2-TMPRSS2, individual assays): 200 nM and 204 nM and 193 nM
EC50 ([4]; source data, read-out: EC50, A549-AEC2-TMPRSS2, Average): 199 nM
EC50 ([5]; read-out: EC50 against KTKYX00012/ο BA.1): 282 ± 43 nM
EC50 ([5]; read-out: EC50 ο BA1, Average): 282 nM
EC50 ([5]; read-out: EC50 ο BA1, individual assays): 290 nM and 235 nM and 320 nM
Cmax ([6]; N = 3 male PXB-mouse, 10 mg/kg p.o.): 1,925¶ ng/mL
T1/2 ([6]; N = 3 male PXB-mouse, 10 mg/kg, oral (p.o.) value for TKB245): 4.34¶ h
Plasma concentration ([6]; PXB-mice, i.v. 10 mg/kg, 10 min, individual mice, listed as TKB0248, 10 mg/kg): 8186.6 ng/mL and 8038.7 ng/mL and 9327.7 ng/mL
Plasma concentration ([6]; PXB-mice, i.v. 10 mg/kg, 0.17 hr, individual mice, listed as TKB0248, 10 mg/kg): 8190 ng/mL and 8040 ng/mL and 9330 ng/mL
Plasma concentration ([6]; PXB-mice, i.v. 10 mg/kg, 60 min, individual mice, listed as TKB0248, 10 mg/kg): 3193.2 ng/mL and 4290.6 ng/mL and 4927 ng/mL
Plasma concentration ([6]; PXB-mice, i.v. 10 mg/kg, 1 hr, individual mice, listed as TKB0248, 10 mg/kg): 3190 ng/mL and 4290 ng/mL and 4930 ng/mL
Plasma concentration ([6]; PXB-mice, i.v. 10 mg/kg, 240 min, individual mice, listed as TKB0248, 10 mg/kg): 955 ng/mL and 1072.2 ng/mL and 1659.6 ng/mL
Plasma concentration ([6]; PXB-mice, i.v. 10 mg/kg, 4 hr, individual mice, listed as TKB0248, 10 mg/kg): 960 ng/mL and 1070 ng/mL and 1660 ng/mL
Plasma concentration ([6]; PXB-mice, i.v. 10 mg/kg, 480 min, individual mice, listed as TKB0248, 10 mg/kg): 290 ng/mL and 301.5 ng/mL and 497.6 ng/mL
Plasma concentration ([6]; PXB-mice, i.v. 10 mg/kg, 8 hr, individual mice, listed as TKB0248, 10 mg/kg): 290 ng/mL and 300 ng/mL and 500 ng/mL
Plasma concentration ([6]; PXB-mice, i.v. 10 mg/kg, 1440 min, individual mice, listed as TKB0248, 10 mg/kg): 13.9 ng/mL and 20.8 ng/mL and 20 ng/mL
Plasma concentration ([6]; PXB-mice, i.v. 10 mg/kg, 24 hr, individual mice, listed as TKB0248, 10 mg/kg): 0.01 µg/ml and 0.02 µg/ml (2×)
Plasma concentration ([6]; PXB-mice, p.o. 10 mg/kg, 10 min, individual mice, listed as TKB0248, 10 mg/kg): 803.8 ng/mL and 639.6 ng/mL and 800.1 ng/mL
Plasma concentration ([6]; PXB-mice, p.o. 10 mg/kg, 0.17 hr, individual mice, listed as TKB0248, 10 mg/kg): 0.8 µg/ml (2×) and 0.64 µg/ml
Plasma concentration ([6]; PXB-mice, p.o. 10 mg/kg, 60 min, individual mice, listed as TKB0248, 10 mg/kg): 2400.6 ng/mL and 1592.1 ng/mL and 1781.9 ng/mL
Plasma concentration ([6]; PXB-mice, p.o. 10 mg/kg, 1 hr, individual mice, listed as TKB0248, 10 mg/kg): 2400 ng/mL and 1590 ng/mL and 1780 ng/mL
Plasma concentration ([6]; PXB-mice, p.o. 10 mg/kg, 240 min, individual mice, listed as TKB0248, 10 mg/kg): 1886.1 ng/mL and 944.6 ng/mL and 788.3 ng/mL
Plasma concentration ([6]; PXB-mice, p.o. 10 mg/kg, 4 hr, individual mice, listed as TKB0248, 10 mg/kg): 1890 ng/mL and 940 ng/mL and 790 ng/mL
Plasma concentration ([6]; PXB-mice, p.o. 10 mg/kg, 480 min, individual mice, listed as TKB0248, 10 mg/kg): 645.5 ng/mL and 263.6 ng/mL and 711 ng/mL
Plasma concentration ([6]; PXB-mice, p.o. 10 mg/kg, 8 hr, individual mice, listed as TKB0248, 10 mg/kg): 650 ng/mL and 260 ng/mL and 710 ng/mL
Plasma concentration ([6]; PXB-mice, p.o. 10 mg/kg, 1440 min, individual mice, listed as TKB0248, 10 mg/kg): 66.2 ng/mL and 80.3 ng/mL and 54.4 ng/mL
Plasma concentration ([6]; PXB-mice, p.o. 10 mg/kg, 24 hr, individual mice, listed as TKB0248, 10 mg/kg): 70 ng/mL and 80 ng/mL and 50 ng/mL
Oral F ([6]; male PXB-mouse 10 mg/kg i.v. and p.o., dose-normalized AUC ratio, 10 mg/kg): 72% and 72¶ %
Plasma concentration ([6]; p.o., 10 min, individual animals (3 per time point), LC/MS/MS, listed as TKB0248): 803.78 ng/mL and 639.58 ng/mL and 800.12 ng/mL
Plasma concentration ([6]; p.o., 60 min, individual animals (3 per time point), LC/MS/MS, listed as TKB0248): 2400.63 ng/mL and 1592.07 ng/mL and 1781.87 ng/mL
Plasma concentration ([6]; p.o., 240 min, individual animals (3 per time point), LC/MS/MS, listed as TKB0248): 1886.06 ng/mL and 944.61 ng/mL and 788.27 ng/mL
Plasma concentration ([6]; p.o., 480 min, individual animals (3 per time point), LC/MS/MS, listed as TKB0248): 645.53 ng/mL and 263.61 ng/mL and 711.03 ng/mL
Plasma concentration ([6]; p.o., 1440 min, individual animals (3 per time point), LC/MS/MS, listed as TKB0248): 66.21 ng/mL and 80.35 ng/mL and 54.38 ng/mL
EC50 ([7]; read-out: EC50 against TKYVS2037/ο BA.2): 210 ± 87 nM
EC50 ([7]; read-out: EC50 ο BA2, individual assays): 150 nM
Effect on human calpain (in words) (human calpain): neither of human cysteine enzymes, cathepsin L and calpain, were significantly affected
%inhibition against humanCalpain (human calpain; 0.000128 µM): 0%
%inhibition against humanCalpain (human calpain; 0.00064 µM): 0%
%inhibition against humanCalpain (human calpain; 0.0032 µM): 0%
%inhibition against humanCalpain (human calpain; 0.08 µM): 0%
%inhibition against humanCalpain (human calpain; 0.4 µM): 0%
%inhibition against humanCalpain (human calpain; 2 µM): 1%
IC50 (human calpain; 60 minute incubation, mean ± 1 S.D., n=3, read-out: IC50, human calpains): > 2000 nM
